Assay results published in ChEMBL document CHEMBL3044588, “Microwave-mediated synthesis of triazolothiadiazoles as anti-inflammatory, analgesic, and anti-oxidant agents” (Med Chem Res, 2012).
Activity calls are given as the source filed them. The calls are words filed in the database; no cut-off is given here.

Key:
[1] = tested on: Radical scavenging activity; assay: Antioxidant activity assessed as DPPH free radical scavenging activity at 100 ug/ml after 30 min; assay type: functional
Mus musculus [2] = assay: Analgesic activity in po dosed Mus musculus Swiss albino (mouse) assessed as increase in reaction time after 1.5 hr by tail-flick method relative to control; assay type: functional
Mus musculus [3] = assay: Analgesic activity in po dosed Mus musculus Swiss albino (mouse) assessed as increase in reaction time after 1 hr by tail-flick method relative to control; assay type: functional
Mus musculus [4] = assay: Analgesic activity in po dosed Mus musculus Swiss albino (mouse) assessed as increase in reaction time after 0.5 hr by tail-flick method relative to control; assay type: functional
Rattus norvegicus [5] = assay: Anti-inflammatory activity in Rattus norvegicus Wistar albino (rat) assessed as inhibition of carrageenan-induced paw edema at 20 mg/kg, po administered 30 min before carrageenan challenge measured after 3 hr relative to control; assay type: functional
Rattus norvegicus [6] = assay: Anti-inflammatory activity in Rattus norvegicus Wistar albino (rat) assessed as inhibition of carrageenan-induced paw edema at 20 mg/kg, po administered 30 min before carrageenan challenge measured after 2.5 hr relative to control; assay type: functional
Rattus norvegicus [7] = assay: Anti-inflammatory activity in Rattus norvegicus Wistar albino (rat) assessed as inhibition of carrageenan-induced paw edema at 20 mg/kg, po administered 30 min before carrageenan challenge measured after 2 hr relative to control; assay type: functional
Rattus norvegicus [8] = assay: Anti-inflammatory activity in Rattus norvegicus Wistar albino (rat) assessed as inhibition of carrageenan-induced paw edema at 20 mg/kg, po administered 30 min before carrageenan challenge measured after 1.5 hr relative to control; assay type: functional
Rattus norvegicus [9] = assay: Anti-inflammatory activity in Rattus norvegicus Wistar albino (rat) assessed as inhibition of carrageenan-induced paw edema at 20 mg/kg, po administered 30 min before carrageenan challenge measured after 1 hr relative to control; assay type: functional
Rattus norvegicus [10] = assay: Anti-inflammatory activity in Rattus norvegicus Wistar albino (rat) assessed as inhibition of carrageenan-induced paw edema at 20 mg/kg, po administered 30 min before carrageenan challenge measured after 0.5 hr relative to control; assay type: functional
Mus musculus [11] = assay: Analgesic activity in Mus musculus Swiss albino (mouse) assessed as increase in reaction time at 10 mg/kg, po after 0.5 hr by tail-flick method relative to control; assay type: functional
Mus musculus [12] = assay: Analgesic activity in Mus musculus Swiss albino (mouse) assessed as increase in reaction time at 10 mg/kg, po after 1.5 hr by tail-flick method relative to control; assay type: functional
Mus musculus [13] = assay: Analgesic activity in Mus musculus Swiss albino (mouse) assessed as increase in reaction time at 10 mg/kg, po after 1 hr by tail-flick method relative to control; assay type: functional
Rattus norvegicus [14] = assay: Ulcerogenic activity in Rattus norvegicus Wistar albino (rat) assessed as ulcer index at 200 mg/kg, po after 17 hr; assay type: toxicity, organism-based; set-up: dose 200 mg/kg, route oral; conditions: in vivo
[15] = Antioxidant activity assessed as superoxide radical scavenging activity at 100 ug/ml after 5 min by NBT reduction assay; assay type: functional
[16] = Antioxidant activity assessed as hydroxyl radical scavenging activity at 100 ug/ml after 4 hr; assay type: functional
[17] = Antioxidant activity assessed as nitric oxide radical scavenging activity at 100 ug/ml after 150 min by Griess Illosvoy reaction; assay type: functional
[18] = Antioxidant activity assessed as nitric oxide radical scavenging activity at 40 ug/ml after 150 min by Griess Illosvoy reaction; assay type: functional
[19] = Antioxidant activity assessed as nitric oxide radical scavenging activity at 20 ug/ml after 150 min by Griess Illosvoy reaction; assay type: functional
[20] = Antioxidant activity assessed as superoxide radical scavenging activity at 80 ug/ml after 5 min by NBT reduction assay; assay type: functional
[21] = Antioxidant activity assessed as superoxide radical scavenging activity at 60 ug/ml after 5 min by NBT reduction assay; assay type: functional
[22] = Antioxidant activity assessed as superoxide radical scavenging activity at 40 ug/ml after 5 min by NBT reduction assay; assay type: functional
[23] = Antioxidant activity assessed as superoxide radical scavenging activity at 20 ug/ml after 5 min by NBT reduction assay; assay type: functional
[24] = Antioxidant activity assessed as hydroxyl radical scavenging activity at 80 ug/ml after 4 hr; assay type: functional
[25] = Antioxidant activity assessed as hydroxyl radical scavenging activity at 60 ug/ml after 4 hr; assay type: functional
[26] = Antioxidant activity assessed as hydroxyl radical scavenging activity at 40 ug/ml after 4 hr; assay type: functional
[27] = Antioxidant activity assessed as hydroxyl radical scavenging activity at 20 ug/ml after 4 hr; assay type: functional
Staphylococcus aureus = assay: Antibacterial activity against Staphylococcus aureus by well diffusion method; assay type: functional, organism-based
Aspergillus = assay: Antifungal activity against Aspergillus by well diffusion method; assay type: functional, organism-based
Escherichia coli = assay: Antibacterial activity against Escherichia coli by well diffusion method; assay type: functional, organism-based
Rattus norvegicus [28] = assay: Ulcerogenic activity in Rattus norvegicus Wistar albino (rat) assessed as ulcer index at equimolar dose of relative to 200 mg/kg of ibuprofen, po after 17 hr; assay type: toxicity, organism-based; set-up: dose 200 mg/kg, route oral; conditions: in vivo
[29] = Antioxidant activity assessed as nitric oxide radical scavenging activity at 80 ug/ml after 150 min by Griess Illosvoy reaction; assay type: functional
[30] = Antioxidant activity assessed as nitric oxide radical scavenging activity at 60 ug/ml after 150 min by Griess Illosvoy reaction; assay type: functional

| SMILES | inhibition [1] [%] | Activity (Mus musculus [2]) [%] | Activity (Mus musculus [3]) [%] | Activity (Mus musculus [4]) [%] | inhibition in vivo at 20 mg/kg (Rattus norvegicus [5]) [%] | inhibition in vivo at 20 mg/kg (Rattus norvegicus [6]) [%] | inhibition in vivo at 20 mg/kg (Rattus norvegicus [7]) [%] | inhibition in vivo at 20 mg/kg (Rattus norvegicus [8]) [%] | inhibition in vivo at 20 mg/kg (Rattus norvegicus [9]) [%] | inhibition in vivo at 20 mg/kg (Rattus norvegicus [10]) [%] | also measured |
| --- | --- | --- | --- | --- | --- | --- | --- | --- | --- | --- | --- |
| CC(C)Cc1ccc(C(C)c2nnc3sc(-c4ccc([N+](=O)[O-])cc4Cl)nn23)cc1 (stereo not drawn) | 1.71 | 41.61 | 31.79 | 17.34 | 69 | 67 | 67 | 59 | 4 | – | – |
| CC(C)Cc1ccc(C(C)C(=O)O)cc1 (stereo not drawn) [IBUPROFEN] | – | – | – | – | 42 | 39 | 36 | 25 | 18 | 20 | Activity (Mus musculus [11]): 11.73%; Activity (Mus musculus [12]): 30.04%; Activity (Mus musculus [13]): 22.53%; UI (Rattus norvegicus [14]): 29.37 |
| Cc1nn2c(C(C)c3ccc(CC(C)C)cc3)nnc2s1 (stereo not drawn) | 7.9 | 42.66 | 32 | 26.66 | 62 | 56 | 58 | 62 | 43 | 64 | – |
| Cc1cc(C(C)(C)C)c(O)c(C(C)(C)C)c1 | 84.8 | – | – | – | – | – | – | – | – | – | inhibition [15]: 72.5%; inhibition [16]: 68.3%; inhibition [17]: 62.2% |
| CC(C)=CCN1CC[C@@]2(C)c3cc(O)ccc3C[C@@H]1[C@@H]2C (racemic) | – | – | – | – | – | – | – | – | – | – | Activity (Mus musculus [11]): 20.44%; Activity (Mus musculus [12]): 77.34%; Activity (Mus musculus [13]): 40.33% |
| CCCc1nn2c(C(C)c3ccc(CC(C)C)cc3)nnc2s1 (stereo not drawn) | 77.9 | – | – | – | 34 | 31 | 28 | 24 | 15 | 10 | inhibition [18]: 26.7%; inhibition [19]: 14.3%; inhibition [15]: 58.6%; inhibition [20]: 53%; inhibition [21]: 42.4%; inhibition [22]: 36.4%; inhibition [23]: 24.5%; inhibition [24]: 56.4%; inhibition [16]: 62.4%; inhibition [25]: 44.2%; inhibition [26]: 38.7%; inhibition [27]: 26.1%; Activity (Staphylococcus aureus): inactive; Activity (Aspergillus): inactive; Activity (Escherichia coli): inactive; UI (Rattus norvegicus [28]): 8.54; inhibition [17]: 52.6%; inhibition [29]: 46.7%; inhibition [30]: 38.3% |
| CC(C)Cc1ccc(C(C)c2nnc3sc(-c4ccccc4Cl)nn23)cc1 (stereo not drawn) | 4.46 | 78.2 | 39.74 | 19.23 | 59 | 58 | 59 | 57 | 43 | 64 | – |
| O=C(O)Cc1ccccc1Nc1c(Cl)cccc1Cl [DICLOFENAC] | – | – | – | – | 75 | 73 | 76 | 80 | 65 | 82 | – |
| CCc1nn2c(C(C)c3ccc(CC(C)C)cc3)nnc2s1 (stereo not drawn) | 5.61 | 30.06 | 16.33 | 7.18 | 55 | 44 | 45 | 49 | 22 | 5 | – |
